Measurements taken from ChEMBL document CHEMBL5729134, “Apoptosis signal-regulating kinase 1 inhibitors and methods of use thereof” (2022).

Molecular target: T1, Mitogen-activated protein kinase kinase kinase 5 (Homo sapiens, UniProt Q99683)
T1 sequence (Q99683 whole entry): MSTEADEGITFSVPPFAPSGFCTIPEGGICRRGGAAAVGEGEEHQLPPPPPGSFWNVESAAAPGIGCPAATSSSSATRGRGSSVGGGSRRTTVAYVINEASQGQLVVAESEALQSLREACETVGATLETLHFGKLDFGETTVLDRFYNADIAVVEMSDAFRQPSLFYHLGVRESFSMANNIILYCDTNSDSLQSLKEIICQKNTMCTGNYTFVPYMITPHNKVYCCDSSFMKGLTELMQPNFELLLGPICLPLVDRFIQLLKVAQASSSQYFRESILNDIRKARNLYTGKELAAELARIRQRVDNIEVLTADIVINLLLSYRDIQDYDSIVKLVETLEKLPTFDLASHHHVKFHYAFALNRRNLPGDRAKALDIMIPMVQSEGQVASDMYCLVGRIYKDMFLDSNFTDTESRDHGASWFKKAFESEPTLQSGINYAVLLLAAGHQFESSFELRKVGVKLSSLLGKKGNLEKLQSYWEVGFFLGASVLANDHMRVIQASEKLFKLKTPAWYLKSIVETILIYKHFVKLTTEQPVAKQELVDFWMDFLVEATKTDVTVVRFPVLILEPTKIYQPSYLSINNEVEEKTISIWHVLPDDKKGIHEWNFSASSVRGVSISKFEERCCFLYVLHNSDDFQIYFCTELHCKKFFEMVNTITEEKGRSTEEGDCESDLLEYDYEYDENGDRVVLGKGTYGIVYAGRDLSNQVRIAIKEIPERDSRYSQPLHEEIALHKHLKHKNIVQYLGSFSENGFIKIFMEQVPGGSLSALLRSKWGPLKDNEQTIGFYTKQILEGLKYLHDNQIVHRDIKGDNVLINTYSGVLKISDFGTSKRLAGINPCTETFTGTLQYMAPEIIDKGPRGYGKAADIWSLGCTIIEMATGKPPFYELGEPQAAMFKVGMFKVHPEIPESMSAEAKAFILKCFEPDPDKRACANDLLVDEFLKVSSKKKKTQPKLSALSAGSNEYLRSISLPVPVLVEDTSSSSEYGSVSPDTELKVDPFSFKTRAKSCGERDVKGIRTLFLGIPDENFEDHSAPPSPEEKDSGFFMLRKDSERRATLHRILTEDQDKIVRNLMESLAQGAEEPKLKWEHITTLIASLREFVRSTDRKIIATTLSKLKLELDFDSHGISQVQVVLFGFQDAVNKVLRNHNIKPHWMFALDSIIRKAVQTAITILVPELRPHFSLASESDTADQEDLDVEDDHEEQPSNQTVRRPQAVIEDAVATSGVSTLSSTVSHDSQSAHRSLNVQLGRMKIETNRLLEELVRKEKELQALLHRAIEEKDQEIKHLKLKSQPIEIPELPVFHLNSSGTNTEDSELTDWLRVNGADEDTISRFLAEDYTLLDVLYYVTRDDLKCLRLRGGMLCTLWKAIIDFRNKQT
Test: HTRF KinEASE Assay : ASK1 was purchased from Thermofisher (Catalogue #PV4011), ATP was purchased from Sigma (Catalogue #A7699), HTRF® KinEASE Assay System was obtained from Cisbio (Bedford, Mass.). ½ Area plate was purchased from Perkin Elmer (Catalogue ##6005560). HTRF® KinEASE-STK is a generic method for measuring serine/threonine kinase activities using a time-resolved fluorescence resonance energy transfer (TR-FRET) immunoassay. The IC50 value for each compound was determined in the presence of compound (various concentration from 0 to 10 μM) and a fixed amount of ATP and peptide substrates. The test compound, 1 μM STK3 peptide substrate, and […] are incubated with kinase reaction buffer containing 50 mM HEPES Ph 7.5, 0.01% BRIJ-35, 10 mM MgCl2, and 1 mM EGTA for 30 minutes. 100 μM ATP is added to start kinase reaction and incubated for 3 hours. The STK3-antibody labeled with Eu3+-Cryptate and 125 nM streptavidin-XL665 are mixed in a single addition with stop reagents provided by the Cisbio kit used to stop the kinase reaction. Fluorescence is detected using an Envision Multilabeled 2014 reader from PerkinElmer. The Fluorescence is measured at 615 nm (Cryptate) and 665 nm (XL665) and a ratio of 665 nm/615 nm is calculated for each well. The resulting TR-FRET is proportional to the phosphorylation level. Staurosporine was used as the positive control. IC50 was determined by Xlfit 5.3.

C[C@H](CO)n1cnnc1-c1cccc(NC(=O)c2cc3c(cn2)CCN(S(=O)(=O)N(C)C)C3)n1
IC50: < 1.25 nM

COc1cc2c(cc1C(=O)Nc1cccc(-c3nncn3[C@H](C)CO)n1)CN(C(=O)OC(C)C)CC2
IC50: 1.25 to 10 nM

COc1cc2c(cc1C(=O)Nc1cccc(-c3nncn3C(C)C)n1)CN(C(=O)N1CCCC1)CC2
IC50: < 1.25 nM

COc1cc2c(cc1C(=O)Nc1cccc(-c3nnnn3C(C)C)n1)CN(C(C)C)CC2
IC50: 1.25 to 10 nM

COc1cc2c(cc1C(=O)Nc1cccc(-c3nnnn3C(C)C)n1)CN(S(=O)(=O)CCC(F)(F)F)CC2
IC50: 1.25 to 10 nM

COc1cc2c(cc1C(=O)Nc1cccc(-c3nnnn3[C@H](C)CO)n1)CN(C(=O)N1CCCC1)CC2
IC50: < 1.25 nM

COc1cc2c(cc1C(=O)Nc1cccc(-c3nnnn3[C@H](C)CO)n1)CN(C(=O)C(C)(C)CO)CC2
IC50: 1.25 to 10 nM

CC(C)n1cnnc1-c1cccc(NC(=O)c2cc3c(cn2)CCN(C(=O)N2CCCC2)C3)n1
IC50: < 1.25 nM

COc1cc2c(cc1C(=O)Nc1cccc(-c3nnnn3[C@H](C)CO)n1)CN(S(=O)(=O)CCC(F)(F)F)CC2
IC50: 1.25 to 10 nM

CC(C)CN1CCc2cnc(C(=O)Nc3cccc(-c4nncn4[C@H](C)CO)n3)cc2C1
IC50: 1.25 to 10 nM

C[C@H](CO)n1cnnc1-c1cccc(NC(=O)c2cc3c(cc2F)CCN(C(=O)OC2CC2)C3)n1
IC50: 1.25 to 10 nM

COc1cc2c(cc1C(=O)Nc1cccc(-c3nnnn3[C@H](C)CO)n1)CN(C(=O)C[C@H](C)O)CC2
IC50: < 1.25 nM

C[C@H](CO)n1cnnc1-c1cccc(NC(=O)c2cc3c(cn2)CCN(C(=O)N2CCCC2)C3)n1
IC50: 1.25 to 10 nM

COc1cc2c(cc1C(=O)Nc1cccc(-c3nnnn3[C@H](C)CO)n1)CN(C)CC2
IC50: 1.25 to 10 nM

CC(C)COC(=O)N1CCc2cc(F)c(C(=O)Nc3cccc(-c4nncn4[C@H](C)CO)n3)cc2C1
IC50: 1.25 to 10 nM

CC(C)n1cnnc1-c1cccc(NC(=O)c2cc3c(cn2)CCN(S(=O)(=O)c2ccccc2)C3)n1
IC50: 1.25 to 10 nM

C[C@H](CO)n1cnnc1-c1cccc(NC(=O)c2cc3c(cc2F)CCN(C)C3)n1
IC50: 1.25 to 10 nM

C[C@H](CO)n1cnnc1-c1cccc(NC(=O)c2cc3c(cc2F)CCN(C(=O)c2ccc(F)cc2)C3)n1
IC50: 1.25 to 10 nM
